# Data from patent US9883691B2, “Food and beverage products containing 1,3-propanediol and methods of modifying flavor release using 1,3-propanediol” (Kraft Foods Group Brands LLC, priority 2012, dated 2018).
# Structures can show the parent of a compound that is named as a salt.
# How the values were obtained:
# [1] = not marked (est); cited from earlier work
# [2] = PTR-MS real-time headspace release, watermelon flavor model in water (Example 1); format: physicochemical; set-up: Sample A (PG) Mean / Sample B (1,3-propanediol) Mean: unit not given here
# Protocol: The impact of 1,3-propanediol on the release of flavor compounds can be analyzed by Proton Transfer Reaction Mass Spectrometry (PTR-MS; model TOF-8000 from Ionicon Analytik Inc.), where real-time headspace release of volatiles is measured. A sampling apparatus is needed in conjunction with the PTR-MS inlet to prevent variations caused by headspace kinetics. By one exemplary approach, the sampling apparatus includes a 4 ounce sample vessel equipped with a 2-hole lid which may be sealed by an adhesive film to allow equilibration. […]. The holes are equal sized (˜2 mm diameter) and match the outer diameter of the PTR-MS inlet line. The flow of the dilution gas into the vessel is regulated by the vacuum and proportional valve of the PTR-MS inlet system. The sample vessel has a base diameter of 47 mm and is 45 mm high, of which 8 mm of height is occupied by the sample in the vessel in these experiments. The 2 holes in the lid are equidistant from the edge of the vessel (˜20 mm) and about 30 mm from each other. The PTR-MS inlet is braced by clamps in a fixed position vertically above the laboratory bench (˜55 mm) and a silicone rubber depth gauge is affixed to the PTR-MS inlet tubing and set at 18 mm. The PTR-MS inlet is thus consistently oriented in a vertical position 18 mm below the inside lid of the vessel and 19 mm above the sample in the vessel. The sample vessel is then held in place during sampling according to the depth gauge on the inlet line and the vessel is subsequently supported on the bench by a 10 mm plastic spacer.
# 15 grams of the sample to be tested (e.g., food or beverage product containing 1,3-propanediol) are added to the vessel. The vessel is sealed and allowed to equilibrate at room temperature (˜22° C.) for 90 minutes. At the time of sampling, the seal is removed from both the sampling hole and the dilution gas hole in the lid and the vessel is immediately affixed to the PTR-MS inlet via the sampling hole. The real-time released flavor is measured from the headspace of the sample vessel for two minutes (according to the conditions listed in Table 1 below). A comparative sample is prepared that is otherwise identical to the test sample but contains propylene glycol or water instead of 1,3-propanediol. The comparative sample is then analyzed in triplicate by PTR-MS using the above-described procedure. The data can be analyzed using PTR-MS Viewer, Version 3.0.0.101 (Ionicon Analytik G.m.b.H). The point of maximum intensity for each compound of interest can be determined and recorded according to the PTR-MS Viewer software. The maximum intensity in counts over the timescale for each compound of interest can be used for data analysis as it reflects the static equilibrium headspace concentration in the system at the moment of seal removal. Due to the necessity of a dilution gas, the volatile concentration decreases over time as the compounds of interest re-equilibrate to a state of dynamic equilibrium in the headspace.
# […]. Sample A was prepared with 20 grams watermelon flavor concentrate and 80 grams propylene glycol. Sample B was prepared with 20 grams watermelon flavor concentrate and 80 grams 1,3-propanediol. Each of the samples was further diluted by adding 0.08 grams of each diluted concentrate to 99.92 grams water to provide a flavor water solution.
# The diluted samples were analyzed by Proton Transfer Reaction Mass Spectrometry (PTR-MS; model TOF-8000 from Ionicon Analytik Inc.) for real-time headspace release volatiles measurement. Samples were analyzed in triplicate. […]. […].
structure (smiles),measurement,setting,value
CCOC=O [Ethyl formate],logP (o/w),[1],0.23
same,"Sample B (1,3-propanediol) Mean","[2]; PTR-MS headspace, watermelon flavor concentrate in 1,3-propanediol, diluted in water, 90 minutes equilibration, mean of three",41.67
same,Sample A (PG) Mean,"[2]; PTR-MS headspace, watermelon flavor concentrate in propylene glycol, diluted in water, 90 minutes equilibration, mean of three",50.50
same,Percent Release Difference,"[2]; Sample B (1,3-propanediol) relative to Sample A (PG)",−17.5%
